Assays:
Format in all cases: physicochemical
[1] = Visual interaction of active ingredient with polyelectrolyte PAA
Protocol: (§1) To determine interaction between polyelectrolytes (PE; Table 1) and active ingredients (AI; Table 2) aqueous stock solutions of about 200 g/L of the PE and of the active ingredients were prepared. The polyelectrolytes were diluted in water and stirred on magnetic stirrer for at least 30 minutes until a homogenous clear solution was obtained (ratios and amounts are presented in Table 4). The active ingredients were dissolved in water on magnetic stirrer or, if they weren't water soluble, suspended in water and milled by adding glass beads (1 mm) in a stainless steel metal beaker until they reach a volume-based average particle size below 20 μm (90% of particles below 20 μm), as determined by laser diffraction. After that the mixture was filtered with a sieve to remove glass beads and the filtrate was used for further analysis.
(§2) A polyelectrolyte solution, PAA or chitosan, was added to a 100-150 mL glass beaker, followed by water and an active ingredient solution/suspension. The mixture was stirred for at least 4 hours, and samples were observed after at least 16 hours. The visual observable interactions were divided into five categories (see Table 3). The categories were chosen by comparison to a blank sample containing the same concentration of active ingredient in water but without polyelectrolyte. […] Interactions were studied over a large range of active ingredient to polyelectrolyte ratios, including 10.000:1 (w/w), 1000:1 (w/w), 100:1 (w/w), 10:1 (w/w), 1:1 (w/w), 1:10 (w/w), 1:100 (w/w) and 1:1000) (w/w).

[2] = Visual interaction of active ingredient with chitosan; design: key to Visual observation category, Active ingredient: chitosan: P: Formation of a precipitate; G: Formation of a gel; C: Formation of a coacervate; V: Increase/decrease of the sediment volume; S: Decrease of solid by increase of solved active ingredient; No visual observable interaction
Protocol: as §1, §2

[3] = Visual interaction with polyanion sodium lignosulfonate; conditions: visible complex formation
Humectancy assay = conditions: dried at 54° C., then 97% relative humidity at 25° C.; weight after/before x 100
Protocol: The complexes of the interaction assay were used to conduct a humectancy assay. […] After reweighing on an analytical balance, the trays were placed in a climate chamber and stored for at least 2 days at 54° C. or until no further weight change was observed. […] The air tight box was 20 cm×12 cm×7 cm. In the box a chicken wire construct was used to create two levels with 10-20 ml of saturated solution of dipotassium sulfate in a petri dish in a lower level, and the samples in an upper level. Boxes were located into an incubator at 25° C. The boxes were incubated for at least 5 days at 25° C. before use to allow equilibration of temperature and humidity. Hereafter, the trays were reweighed.
The change in humectancy by combining a pesticide and polyelectrolyte is expressed as percent value by multiplying the sample weight after incubation (w2) with 100 divided with the sample weight before incubation (w1) using the following equation: […]
To evaluate the effect of the interaction of the active ingredient and polyelectrolyte on humectancy (synergetic/antagonistic/no effect), the determined Humectancy of the samples containing both active ingredient and polyelectrolyte “Humectancy (blend)” was divided by the theoretical value of Humectancy of the blend provided by respective proportion (% AI; % PE) of each pesticide and polyelectrolyte using the following equation: […]
According to this formula, a positive result of more than 1 is indicative of synergy.
The complexes obtained with the method of WO2010035118, with both ratios of 2:1 and 1:5 (PAA:AI) were tested for humectancy. […] For each sample, the test was carried in triplicate.
For each sample, the test was carried in triplicate.

[4] = ratio active ingredient:PAA 1:1 (w/w)
[5] = ratio active ingredient:PAA 1:1000 (w/w)
[6] = ratio active ingredient:PAA 10.000:1 (w/w)
[7] = ratio active ingredient:chitosan 1.000:1 (w/w)
[8] = ratio active ingredient:chitosan 1:1 (w/w)
[9] = ratio active ingredient:chitosan 1:10 (w/w)
[10] = ratio active ingredient:chitosan 1:100 (w/w)
[11] = ratio active ingredient:chitosan 2:1 (w/w)
[12] = ratio active ingredient:chitosan 5:1 (w/w)
[13] = ratio active ingredient:chitosan 10.000:1 (w/w)
[14] = ratio active ingredient:chitosan 10:1 (w/w)
[15] = ratio active ingredient:chitosan 100:1 (w/w)
[16] = ratio active ingredient:PAA 1.000:1 (w/w)
[17] = ratio active ingredient:PAA 1:10 (w/w)
[18] = ratio active ingredient:PAA 1:100 (w/w)
[19] = ratio active ingredient:PAA 100:1 (w/w)

SMILES | Visual observation category, Active ingredient: PAA [1, 5] | Visual observation category, Active ingredient: PAA [1, 6] | Interaction with the polyanion sodium lignosulfonate [3] | Humectancy (Humectancy assay) [%] | Visual observation category, Active ingredient: PAA [1, 16] | Visual observation category, Active ingredient: PAA [1, 17] | Visual observation category, Active ingredient: PAA [1, 18] | Visual observation category, Active ingredient: PAA [1, 19] | further results
O=C(O)COc1ccc(Cl)cc1Cl [2,4D, 2-(2,4-dichlorophenoxy)acetic acid] | N | N | did not form a visible complex | 212.7 |  |  |  |  | Visual observation category, Active ingredient: PAA [1, 4]: G/P; Visual observation category, Active ingredient: chitosan [2, 7]: N; Visual observation category, Active ingredient: chitosan [2, 8]: P; Visual observation category, Active ingredient: chitosan [2, 9]: N; Visual observation category, Active ingredient: chitosan [2, 10]: N; Visual observation category, Active ingredient: chitosan [2, 11]: P; Visual observation category, Active ingredient: chitosan [2, 12]: P; Visual observation category, Active ingredient: chitosan [2, 13]: N; Visual observation category, Active ingredient: chitosan [2, 14]: P; Visual observation category, Active ingredient: chitosan [2, 15]: P
N.N.O=[PH](O)O [(NH4)2HPO3] |  | N | did not form a visible complex |  | N | N | N | N | 
CNC(=N[N+](=O)[O-])NCc1cnc(Cl)s1 [Clothianidin, 1-[(2-chloro-1,3-thiazol-5-yl)methyl]-3-methyl-2-nitroguanidine] | N | N |  | 120.0 |  | N | N |  | 
COc1c(Cl)ccc(Cl)c1C(=O)O [Dicamba, 3,6-dichloro-2-methoxybenzoic acid] |  |  | did not form a visible complex |  |  | N | N |  | Visual observation category, Active ingredient: PAA ([1]; ratio active ingredient:PAA 100.000:1 (w/w)): N; Visual observation category, Active ingredient: chitosan [2, 7]: P; Visual observation category, Active ingredient: chitosan [2, 8]: N; Visual observation category, Active ingredient: chitosan [2, 9]: N; Visual observation category, Active ingredient: chitosan [2, 10]: N; Visual observation category, Active ingredient: chitosan [2, 11]: N; Visual observation category, Active ingredient: chitosan [2, 12]: P; Visual observation category, Active ingredient: chitosan [2, 13]: N; Visual observation category, Active ingredient: chitosan [2, 14]: P; Visual observation category, Active ingredient: chitosan [2, 15]: P
CCO[PH](=O)O [Fosetyl Al] | N |  |  | 137.0 |  | N | N |  | Ratios at which active ingredient interacted (w/w; active ingredient:polycation) ([1]; summary of Table 4): from 10.000:1 to 1:1
O=[N+]([O-])/N=C1\NCCN1Cc1ccc(Cl)nc1 [Imidacloprid, (NE)-N-[1-[(6-chloropyridin-3-yl)methyl]imidazolidin-2-ylidene]nitramide] |  | N |  | 108.4 |  | N | N |  | Visual observation category, Active ingredient: PAA [1, 4]: N; Visual observation category, Active ingredient: PAA ([1]; ratio active ingredient:PAA 2:1 (w/w)): N; Visual observation category, Active ingredient: PAA ([1]; ratio active ingredient:PAA 5:1 (w/w)): No
O=[PH]([O-])[O-].[K+].[K+] [K2HPO3] |  | N | did not form a visible complex |  | N | N | N | N | 
O=[PH]([O-])[O-].[Na+].[Na+] [Na2HPO3] |  | N | did not form a visible complex |  | N | N | N | N | 
C[C@@H]1C/C=C/C=C/C=C/C=C/[C@H](O[C@@H]2O[C@H](C)[C@@H](O)[C@H](N)[C@@H]2O)C[C@@H]2O[C@](O)(C[C@@H](O)C[C@H]3O[C@@H]3/C=C/C(=O)O1)C[C@H](O)[C@H]2C(=O)O [Natamycin, (1R,3S,5R,7R,8E,12R,14E,16E,18E,20E,22R,24S,25R,26S)-22-[(2R,3S,4S,5S,6R)-4-amino-3,5-dihydroxy-6-methyloxan-2-yl]oxy-1,3,26-trihydroxy-12-methyl-10-oxo-6,11,28-trioxatricyclo[22.3.1.05,7]octacosa-8,14,16,18,20-pentaene-25-carboxylic acid] |  |  |  |  | N | N | N |  | Interaction with chitosan [2]: interact
CCCCCCCCC(=O)O [Pelargonic acid, nonanoic acid] | N | N | did not form a visible complex |  |  |  | N |  | 
O=C(O)[C@@H]1CCCN1 [Proline] | N | N |  |  | N | N | N | N | Visual observation category, Active ingredient: PAA [1, 4]: N; Visual observation category, Active ingredient: PAA ([1]; ratio active ingredient:PAA 10:1 (w/w)): N
O=C1c2ccccc2C(=O)N1SC(Cl)(Cl)Cl [folpet, N-(trichloromethylthio)phthalimide] |  |  |  |  |  |  |  |  | Interaction with the polycation PAA [1]: interacts over a large range of ratio's
